Among the data in patent publication US20180170941A1 (priority 2016, published 2018) are Ki values, retold here.

T1 sequence (P31644 32-462): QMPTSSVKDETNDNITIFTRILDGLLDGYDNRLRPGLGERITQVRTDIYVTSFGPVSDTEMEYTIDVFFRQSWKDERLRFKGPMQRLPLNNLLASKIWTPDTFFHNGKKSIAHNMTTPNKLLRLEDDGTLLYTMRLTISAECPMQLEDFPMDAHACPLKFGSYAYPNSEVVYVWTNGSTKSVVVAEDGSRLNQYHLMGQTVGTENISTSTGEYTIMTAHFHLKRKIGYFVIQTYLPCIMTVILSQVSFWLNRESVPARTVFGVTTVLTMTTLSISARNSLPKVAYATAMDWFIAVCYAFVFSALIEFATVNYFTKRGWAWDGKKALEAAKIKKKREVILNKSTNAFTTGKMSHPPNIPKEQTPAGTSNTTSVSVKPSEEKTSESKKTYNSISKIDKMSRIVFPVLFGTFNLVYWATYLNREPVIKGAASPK
T1 sequence (P28472 26-473 partner): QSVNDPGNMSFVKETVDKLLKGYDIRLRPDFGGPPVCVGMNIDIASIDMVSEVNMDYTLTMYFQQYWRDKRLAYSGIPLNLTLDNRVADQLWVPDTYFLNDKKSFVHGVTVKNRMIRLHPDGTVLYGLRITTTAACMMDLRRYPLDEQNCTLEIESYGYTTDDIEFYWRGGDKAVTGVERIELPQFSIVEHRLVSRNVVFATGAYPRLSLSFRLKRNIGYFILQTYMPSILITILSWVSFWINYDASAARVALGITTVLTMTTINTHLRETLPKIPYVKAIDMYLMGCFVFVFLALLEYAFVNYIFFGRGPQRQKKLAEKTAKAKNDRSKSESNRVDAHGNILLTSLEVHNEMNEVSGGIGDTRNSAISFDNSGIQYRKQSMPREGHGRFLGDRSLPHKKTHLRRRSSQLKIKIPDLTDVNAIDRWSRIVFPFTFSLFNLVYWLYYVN
T1 sequence (P18507 40-475): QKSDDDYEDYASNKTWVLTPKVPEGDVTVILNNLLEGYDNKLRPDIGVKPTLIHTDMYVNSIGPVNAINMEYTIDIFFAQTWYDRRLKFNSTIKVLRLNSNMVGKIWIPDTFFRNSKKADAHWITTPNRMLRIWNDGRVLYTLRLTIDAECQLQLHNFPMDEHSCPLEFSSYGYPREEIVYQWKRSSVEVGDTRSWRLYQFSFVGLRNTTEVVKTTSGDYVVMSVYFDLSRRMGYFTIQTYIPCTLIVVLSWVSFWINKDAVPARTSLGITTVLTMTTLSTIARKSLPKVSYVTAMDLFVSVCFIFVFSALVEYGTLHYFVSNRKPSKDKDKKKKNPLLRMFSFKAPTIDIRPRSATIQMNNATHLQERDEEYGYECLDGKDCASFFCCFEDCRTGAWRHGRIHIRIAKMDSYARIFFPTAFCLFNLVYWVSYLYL

One assay concerns the target T1, α5β3γ2 GABAA receptors (Ltk cell membranes) (Homo sapiens, UniProt P18507+P31644).
T1 construct: membranes
Nature of the assay: Binding activity of test compounds on GABAAR: inhibition of [3H]Ro15-1788 binding.
Conditions: not given
The method, then: Tissue culture and Membrane Preparation: The binding was performed on Ltk cells stably expressing GABAA receptors: α1β1γ2, α2β3γ2, α3β3γ2 and α5β3γ2 (provided by Merck Co., NJ, USA). Cells were seeded in 100 mm culture plates in DMEM/F12 medium containing 10% serum and antibiotics in 5% CO2 and allowed to grow for 1-2 days. GABAAR expression was then induced by dexamethasone as follows: 0.5 μM for 1 day for α5 containing and 2μM for 3 days for α1, α2 and α3 containing GABAARs. After induction, cells were collected by scraping into Dulbecco's Phosphate buffered saline (DPBS, pH 7.4, Invitrogen, Carlsbad, Calif., USA) and centrifuged at 150×g for 10 min. The pellet was washed twice by re-suspension and centrifugation. The cell pellets from at least 5 different preps were combined, suspended in the binding assay buffer (50 mM KH2P4; 1 mM EDTA; 0.2 M KCl, pH 7.4) and membranes prepared by sonication (3-5 times, 30 sec) using Branson Sonifier 150 (G.Heinmann, Germany). Protein content was determined using BCA assay (Bio-Rad Labs, Reinach, Switzerland) with Bovine Serum Albumin (Sigma Aldrich, St. Louis, Mo., USA) as the standard. Aliquots were prepared and stored at −20° C. for further use in binding assays.
Ligand Binding: Saturation binding curves were obtained by incubating membranes with increasing concentrations (0.01-8 nM) of [^3H]Ro15-1788 (Flumazepil, 75-85 Ci/mmol, PerkinElmer, MA, USA), with nonspecific binding measured in the presence of 10 μM diazepam.
All binding assays were performed for 1 h at 4° C. in assay buffer. The total assay volume was 0.5 ml containing 0.2 mg/ml protein for α5 and 0.4 mg/ml for α1, α2, and α3 containing GABAAR membranes. Incubations were terminated by filtration through GF/B filters using a 24-Cell Harvestor (Brandel, Gaithersburg, Md., USA) followed by 3 washes with ice-cold assay buffer. Filters were transferred to scintillation vials, 5 ml scintillation liquid added, vortex-mixed and kept in dark. Next day, radioactivity was obtained using a scintillation counter (Beckman Coulter, Brea, Calif., USA). All assays were performed in triplicate.
Data Analyses: Saturation and inhibition curves were obtained using GraphPad Prism software (GraphPad Software, Inc., CA, USA).
For the molecule `CCC(=O)c1ncn2c1Cn1c(COc3ccccc3)nnc1-c1cc(OC)ccc1-2` [Compound 123], the inhibitory constant (Ki) (usually the dissociation constant of the complex between target and ligand, obtained from inhibition or displacement) is above 1000 nM.

`COCc1nnc2n1Cc1cncn1-c1ccc(OC)cc1-2` [Compound 131] yielded an inhibition constant Ki above 1000 nM.

In turn, `COc1ccc2c(c1)-c1nnc(COc3ccccc3)n1Cc1c(Cc3ccccc3)ncn1-2` [Compound 142] returned an inhibition constant Ki above 1000 nM.

Take `Cc1ccc(S(=O)(=O)c2ncn3c2Cc2c(C)nnn2-c2cc(F)ccc2-3)cc1` [Compound 143]: the Ki was above 1000 nM.

Staying with this assay, now noted: GABA α5 Binding Ki Values, inhibition of [3H]Ro15-1788 binding; reported as ranges.
The molecule `CCOC(=O)c1ncn2c1Cc1c(C)nnn1-c1cc(OC)ccc1-2` [Compound 1] registered a Ki below 100 nM.

The molecule `CCOC(=O)c1ncn2c1Cc1c(C)nnn1-c1cc(F)ccc1-2` [Compound 2] returned a Ki below 100 nM.

In turn, `CCOC(=O)c1ncn2c1Cc1c(C)nnn1-c1ccccc1-2` [Compound 3] showed an inhibitory constant (Ki) below 100 nM.

With `CCOC(=O)c1ncn2c1Cc1c(Cc3ccccc3)nnn1-c1cc(OC)ccc1-2` [Compound 4], the inhibition constant (Ki) is below 100 nM.

`CCOC(=O)c1ncn2c1Cc1c(Cc3ccccc3)nnn1-c1ccccc1-2` [Compound 5] had an inhibition constant Ki below 100 nM.

Consider `CCOC(=O)c1ncn2c1Cc1c(Cc3ccccc3)nnn1-c1cc(F)ccc1-2` [Compound 6], for which the inhibitory constant (Ki) is below 100 nM.

Molecule `CCOC(=O)c1ncn2c1Cc1c(C)cnn1-c1cc(OC)ccc1-2` [Compound 7] had an inhibition constant (Ki) below 100 nM.

On to `CCOC(=O)c1ncn2c1Cc1c(Cc3ccccc3)cnn1-c1cc(OC)ccc1-2` [Compound 8], for which the inhibitory constant (Ki) was below 100 nM.

The molecule `CCOC(=O)c1ncn2c1Cc1c(COc3ccccc3)nnn1-c1cc(OC)ccc1-2` [Compound 9] returned an inhibition constant Ki below 100 nM.

Molecule `CCOC(=O)c1ncn2c1Cc1c(COc3ccc(F)cc3)nnn1-c1cc(OC)ccc1-2` [Compound 10] returned an inhibition constant (Ki) below 100 nM.

`CCOC(=O)c1ncn2c1Cc1c(COc3cccc(OC)c3)nnn1-c1cc(OC)ccc1-2` [Compound 11] showed a Ki below 100 nM.

Regarding `CCOC(=O)c1ncn2c1Cc1c(COc3ccc(C)cc3C)nnn1-c1cc(OC)ccc1-2` [Compound 12], the inhibition constant (Ki) is below 100 nM.

The molecule `CCOC(=O)c1ncn2c1Cc1c(Cc3ccc(C)cc3)nnn1-c1cc(F)ccc1-2` [Compound 44] gave a Ki below 100 nM.

`CCOC(=O)c1ncn2c1Cc1c(Cc3ccc(Cl)cc3)nnn1-c1cc(F)ccc1-2` [Compound 45]: the Ki is below 100 nM.

`CCOC(=O)c1ncn2c1Cc1c(Cc3ccc(F)cc3)nnn1-c1cc(F)ccc1-2` [Compound 46] returned an inhibition constant (Ki) below 100 nM.

Turning to `CCOC(=O)c1ncn2c1Cc1c(Cc3ccc(Cl)cc3)nnn1-c1ccccc1-2` [Compound 47], the inhibitory constant (Ki) is below 100 nM.

Molecule `CCOC(=O)c1ncn2c1Cc1c(CN3CCCC3)nnn1-c1cc(OC)ccc1-2` [Compound 48] yielded a Ki below 100 nM.

As for `CCOC(=O)c1ncn2c1Cc1c(CN3CCOCC3)nnn1-c1cc(OC)ccc1-2` [Compound 49], the inhibition constant (Ki) was below 100 nM.

`CCOC(=O)c1ncn2c1Cc1c(CN(CC)CC)nnn1-c1cc(OC)ccc1-2` [Compound 50]: the Ki fell in the range of 100 to 1000 nM.

`CCOC(=O)c1ncn2c1Cc1c(CN(C)Cc3ccccc3)nnn1-c1cc(OC)ccc1-2` [Compound 51] returned a Ki below 100 nM.

In turn, `CCOC(=O)c1ncn2c1Cc1c(Cc3cccc(Cl)c3)nnn1-c1cc(OC)ccc1-2` [Compound 52] yielded an inhibition constant (Ki) below 100 nM.

The molecule `CCOC(=O)c1ncn2c1Cc1c(Cc3cccc(C#N)c3)nnn1-c1cc(OC)ccc1-2` [Compound 53] returned a Ki below 100 nM.

The molecule `CCOC(=O)c1ncn2c1Cn1c(COc3ccccc3)nnc1-c1cc(OC)ccc1-2` [Compound 55] showed a Ki below 100 nM.

Consider `CCOC(=O)c1ncn2c1Cn1c(COc3ccc(F)cc3)nnc1-c1cc(OC)ccc1-2` [Compound 56], for which the inhibitory constant (Ki) is below 100 nM.

Turning to `CCOC(=O)c1ncn2c1Cc1c(Cc3ccccc3)nnn1-c1cc(C)ccc1-2` [Compound 101], the Ki was below 100 nM.

`CCOC(=O)c1ncn2c1Cc1c(C)nnn1-c1cc(C)ccc1-2` [Compound 102]: the Ki is below 100 nM.

Consider `CCOC(=O)c1ncn2c1Cn1c(COC)nnc1-c1cc(OC)ccc1-2` [Compound 103], for which the Ki is below 100 nM.

`CCOC(=O)c1ncn2c1Cn1c(Oc3ccccc3)nnc1-c1cc(OC)ccc1-2` [Compound 104] came in with a Ki below 100 nM.

For the molecule `CCOC(=O)c1ncn2c1Cn1c(Oc3cccc(OC)c3)nnc1-c1cc(OC)ccc1-2` [Compound 105], the inhibitory constant (Ki) is below 100 nM.

Molecule `CCOC(=O)c1ncn2c1Cn1c(Br)nnc1-c1cc(OC)ccc1-2` [Compound 106] came in with an inhibitory constant (Ki) below 100 nM.

Molecule `CCOC(=O)c1ncn2c1Cc1c(COc3ccccc3)nnn1-c1cc(F)ccc1-2` [Compound 107] had an inhibition constant Ki below 100 nM.

As for `CCOC(=O)c1ncn2c1Cc1c(Cc3ccccc3Cl)nnn1-c1cc(OC)ccc1-2` [Compound 108], the inhibition constant Ki is below 100 nM.

For `Cc1noc(-c2ncn3c2Cc2c(Cc4ccccc4)nnn2-c2cc(F)ccc2-3)n1` [Compound 109], the Ki is below 100 nM.

`Cc1noc(-c2ncn3c2Cc2c(C)nnn2-c2cc(F)ccc2-3)n1` [Compound 110] registered a Ki of 100 to 1000 nM.

In turn, `Cc1nnn2c1Cc1c(C(=O)OC(C)C)ncn1-c1ccc(F)cc1-2` [Compound 112] came in with a Ki below 100 nM.

For `Cc1nnn2c1Cc1c(C(=O)OCC(C)(C)C)ncn1-c1ccc(F)cc1-2` [Compound 113], the Ki was 100 to 1000 nM.

In turn, `Cc1nnn2c1Cc1c(C(=O)OCC(F)(F)F)ncn1-c1ccc(F)cc1-2` [Compound 114] had an inhibition constant (Ki) below 100 nM.

Molecule `Cc1nnn2c1Cc1c(C#N)ncn1-c1ccccc1-2` [Compound 115] returned a Ki of 100 to 1000 nM.

Molecule `Cc1nnn2c1Cc1c(C#N)ncn1-c1ccc(F)cc1-2` [Compound 116] gave a Ki above 1000 nM.

For the molecule `Cc1nnn2c1Cc1c(C(N)=O)ncn1-c1ccccc1-2` [Compound 117], the inhibition constant Ki is above 1000 nM.

Regarding `COc1ccc2c(c1)-c1nnc(COc3ccccc3)n1Cc1c(-c3nc(C)no3)ncn1-2` [Compound 118], the inhibition constant (Ki) was below 100 nM.

`COc1ccc2c(c1)-c1nnc(COc3ccccc3)n1Cc1c(C(=O)OCC(C)(C)C)ncn1-2` [Compound 119]: the Ki was 100 to 1000 nM.

Take `COc1ccc2c(c1)-c1nnc(COc3ccccc3)n1Cc1c(C(=O)OC(C)C)ncn1-2` [Compound 120]: the inhibitory constant (Ki) was below 100 nM.

As to `Cc1ncn2c1Cc1c(C)nnn1-c1ccccc1-2` [Compound 121], the inhibitory constant (Ki) is above 1000 nM.

As to `COc1ccc2c(c1)-c1nnc(COc3ccccc3)n1Cc1c(C#N)ncn1-2` [Compound 122], the Ki is below 100 nM.

`COc1ccc2c(c1)-c1nnc(COc3ccccc3)n1Cc1c(C(F)F)ncn1-2` [Compound 124] registered an inhibition constant (Ki) of 100 to 1000 nM.

In turn, `CCC(=O)c1ncn2c1Cc1c(C)nnn1-c1ccccc1-2` [Compound 125] showed a Ki of 100 to 1000 nM.

The molecule `Cc1noc(-c2ncn3c2Cc2c(C)nnn2-c2ccccc2-3)n1` [Compound 126] returned an inhibitory constant (Ki) below 100 nM.

Turning to `Cc1nc(-c2ncn3c2Cc2c(C)nnn2-c2ccccc2-3)no1` [Compound 127], the Ki is below 100 nM.

In turn, `COCc1nnc2n1Cc1c(-c3nc(C)no3)ncn1-c1ccc(OC)cc1-2` [Compound 128] returned a Ki below 100 nM.

For the molecule `COCc1nnc2n1Cc1c(Br)ncn1-c1ccc(OC)cc1-2` [Compound 129], the inhibitory constant (Ki) was below 100 nM.

On to `COCc1nnc2n1Cc1c(-c3nc(C(C)C)no3)ncn1-c1ccc(OC)cc1-2` [Compound 130], for which the inhibition constant (Ki) is below 100 nM.

In turn, `Cc1nnn2c1Cc1c(-c3nc(C(C)C)no3)ncn1-c1ccccc1-2` [Compound 132] showed a Ki below 100 nM.

On to `Cc1nnn2c1Cc1c(-c3noc(C(C)C)n3)ncn1-c1ccccc1-2` [Compound 133], for which the inhibition constant Ki is below 100 nM.

The molecule `CCOCc1ncn2c1Cc1c(COCC)nnn1-c1ccccc1-2` [Compound 134] yielded a Ki of 100 to 1000 nM.

The molecule `Cc1ncn2c1Cc1c(C)nnn1-c1cc(F)ccc1-2` [Compound 135] came in with an inhibition constant Ki above 1000 nM.

On to `Cc1nnn2c1Cc1c(Br)ncn1-c1ccc(F)cc1-2` [Compound 136], for which the inhibition constant Ki lay in the range of 100 to 1000 nM.

In turn, `CCOC(=O)c1ncn2c1Cn1c(COc3ccccc3)nnc1-c1cc(F)ccc1-2` [Compound 137] came in with an inhibitory constant (Ki) below 100 nM.

For the molecule `Cc1noc(-c2ncn3c2Cn2c(COc4ccccc4)nnc2-c2cc(F)ccc2-3)n1` [Compound 138], the inhibition constant Ki was 100 to 1000 nM.

The molecule `Cc1nnn2c1Cc1c(-c3ccccc3)ncn1-c1ccc(F)cc1-2` [Compound 139] came in with an inhibition constant Ki of 100 to 1000 nM.

`Cc1nnn2c1Cc1c(-c3cccnc3)ncn1-c1ccc(F)cc1-2` [Compound 140] yielded a Ki above 1000 nM.

The molecule `CC(C)c1noc(-c2ncn3c2Cn2c(COc4ccccc4)nnc2-c2cc(F)ccc2-3)n1` [Compound 141] gave an inhibition constant Ki of 100 to 1000 nM.

Molecule `Cc1ccc(S(=O)(=O)c2ncn3c2Cc2c(C)nnn2-c2cc(F)ccc2-3)cc1` [Compound 143] yielded a Ki of 100 to 1000 nM.
